{"source": "patent US6531453B1", "about": "“NKT cell activators containing α-glycosylceramides” (Kirin Beera Kabushiki Kaisha, priority 1997, dated 2003)", "key": {"[1]": {"tested_on": "MRL lpr/lpr mice", "assay": "Suppression of lymph node swelling in MRL lpr/lpr mice", "assay_type": "in vivo, mouse", "settings": "100 μg/kg i.p. twice a week from the age of 11 weeks", "procedure": "Ten animals per group of female MRL lpr/lpr mice (Sakamoto, A. Clin. Immunol., 28, 1558 (1966)), were used for the following experiment. During the observation of 21 MRL mice purchased at the age of 6 weeks, swelling of the axillary lymph nodes was recognized in one mouse at the age of 10 weeks. Accordingly, the other 20 mice were randomly divided into 2 groups. A vehicle (a physiological saline solution containing 0.025% Polysolvate 20) or KRN 7000 (100 μg/kg) was intraperitoneally administered twice a week (on Tuesday and Friday) to the abovementioned 2 groups of animals starting from the age of 11 weeks. Axillary and inguinal lymph nodes were examined twice a week to observe the progress of lymph node swelling with time. The lymph nodes were scored into 4 grades, i.e., −(0), +(1), ++(2) and +++(3) as a function of size. The total scores of both right and left sides of the axillary lymph node (A) or inguinal lymph node (B) were expressed as lymph node swelling indexes as shown in FIG. 3."}, "[2]": {"tested_on": "spleen cells of RAG-1KO/Vα14tg/Vβ8.2tg mice (NKT cells)", "assay": "Stimulation of NKT cell proliferation, [3H]thymidine incorporation in spleen cells", "assay_type": "cell-based, mouse", "settings": "2 days incubation", "procedure": "Stimulation of NKT cell proliferation by compounds having an α-glycosylceramide structure was studied using spleen cells of RAG-1KO/Vα14tg/Vβ8.2tg mice shown in Pharmacological Test Example 1.\nSpleen cells were prepared from the spleen of RAG-1KO/Vα14tg/Vβ8.2tg mice by conventional methods. These spleen cells were suspended at 2×10^6 cells/ml in an RPMI 1640 medium supplemented with 10% FCS, and 100 μl each of the suspension were plated into wells of 96-well round-bottomed plates. Ten different kinds of compounds having an α-glycosylceramide structure shown in FIG. 12 were added to the wells of the plates at a final concentration of 1, 10 or 100 ng/ml, and the plates were incubated for 2 days. Sixteen hours after the addition of [^3H] thymidine (0.5 μCi/well), the cells were harvested. The amount of [^3H] thymidine incorporated into the cells was measured by a liquid scintillation counter."}, "[3]": {"tested_on": "mice", "assay": "Acute toxicity test by a single administration", "assay_type": "in vivo", "settings": "intravenous, 10 mg/kg", "description": "(§1) The compound of Example 1 was intravenously administered to mice."}, "[4]": {"assay": "Acute toxicity test by a single administration", "assay_type": "in vivo", "settings": "mouse, in vivo, 10 mg/kg; intravenous, single administration, mice", "description": "as §1"}, "[5]": {"tested_on": "Vα14+ NKT cells", "assay": "Stimulation of spleen NKT cell proliferation in C57BL/6 mice (3-color FACS analysis)", "assay_type": "in vivo, mouse", "procedure": "A vehicle (physiological saline solution containing 0.5% Polysolvate 20) or 1, 10 or 100 ng/kg of KRN 7000 was intravenously administered to C57BL/6 mice (Japan SLC, Inc.), and the spleen of individual mice was taken out after 24 hours to prepare spleen cells by conventional methods. These spleen cells were incubated in a plastic dish for 30 minutes to prepare nonadherent cells. By removing B cells in this nonadherent cells, a lymphocyte fraction was prepared. T cells, NK cells, NKT cells and Vα14^+ NKT cells in this fraction were analyzed by the 3-color FACS analysis using the FITC-labeled anti-TCR αβ monoclonal antibody (Pharmingen), cychrome-labeled anti-NK1.1 monoclonal antibody (Pharmingen) and PE-labeled anti-Vα14 monoclonal antibody (FIG. 2). The anti-Vα14 monoclonal antibody was obtained by implanting anti-Vα14 monoclonal antibody producing hybridomas (CMS-1; available from Masaru Taniguchi et al, School of Medicine, Chiba University) in nude mice and recovering ascites from the animals to purify the antibody. In FIGS. 2A and 2B, the numbers of NK1.1 cells, TCRαβ cells and […] in the lymphocyte fraction were expressed as fluorescence intensity of the labeled antibodies against these cells."}, "[6]": {"settings": "spleen, i.v., 24 hours, FIG. 2C"}}, "data": [{"smiles": "CCCCCCCCCCCCCCCCCCCCCCCCCC(=O)N[C@@H](CO[C@H]1O[C@H](CO)[C@H](O)[C@H](O)[C@H]1O)[C@H](O)[C@H](O)CCCCCCCCCCCCCC", "note": "[KRN 7000, (2S,3S,4R)-1-(α-D-galactopyranosyloxy)-2-hexacosanoylamino-3,4-octadecanediol]", "values": [{"measurement": "swelling in the axillary lymph nodes with aging", "setting": "[1]; FIG. 3A", "value": "clearly suppressed"}, {"measurement": "swelling in the inguinal lymph nodes with aging", "setting": "[1]; FIG. 3B", "value": "clearly suppressed"}, {"measurement": "[3H] Thymidine incorporation (cpm)", "setting": "[2]; 1 ng/ml, vehicle 2090", "value": 40064, "unit": "cpm"}, {"measurement": "[3H] Thymidine incorporation (cpm)", "setting": "[2]; 10 ng/ml, vehicle 2056", "value": 74669, "unit": "cpm"}, {"measurement": "[3H] Thymidine incorporation (cpm)", "setting": "[2]; 100 ng/ml, vehicle 2014", "value": 102543, "unit": "cpm"}, {"measurement": "toxicity symptoms", "setting": "[3]", "value": "no particular symptom"}, {"measurement": "LD50", "setting": "[4]", "value": "> 10", "unit": "mg/kg"}, {"measurement": "rate of NK1.1+ TCRαβ cells in the spleen lymphocyte fraction vs vehicle", "setting": "[5]; 100 ng/kg i.v., 24 hours, FIG. 2A", "value": "marked increase"}, {"measurement": "rate of Vβ14+ cells in NK1.1+ TCRβα+ cells vs vehicle", "setting": "[5]; 100 ng/kg i.v., 24 hours, FIG. 2B", "value": "increase"}, {"measurement": "numbers of NK cells in the spleen lymphocyte fractions", "setting": "[5]; 10 or 100 ng/kg i.v., 24 hours, FIG. 2C", "value": "equal to those from the vehicle-administered mice"}, {"measurement": "increase in numbers of Vα14+ NKT cells in the spleen lymphocyte fraction vs vehicle", "setting": "[5]; i.v., 24 hours, FIG. 2C", "value": "more than four times"}, {"measurement": "increase in numbers of Vα14− NKT cells in the spleen lymphocyte fraction vs vehicle", "setting": "[5]; i.v., 24 hours, data not shown", "value": "more than three times"}, {"measurement": "numbers of Vα14+ cells in the liver", "setting": "[5]; liver, data not shown", "value": "marked increase"}, {"measurement": "numbers of Vα14− NKT cells in the liver", "setting": "[5]; liver, data not shown", "value": "marked increase"}, {"measurement": "increase in the numbers of T cells vs vehicle-administered mice", "setting": "[5]; [6]", "value": "about 2 fold"}, {"measurement": "increase in the numbers of lymphocyte fractions vs vehicle-administered mice", "setting": "[5]; [6]", "value": "about 2 fold"}]}]}
